In US8663646B2, “P53 peptide vaccine” (priority 2007, dated 2014):
Where no end group is shown, it is not given here.

Legend:
[1] = target: T1, HLA-A*0301 (Homo sapiens, UniProt P04439); test: Competition based cellular binding assay, HLA-A*0301 (B-cell line EKR); conditions: for IC50: read-out: Peptide Binding Affinity; for HLA binding Affinity (Table 5): HLA type A3
T1 construct: B-cell lines used are: CAA (A*0101), EKR (A*0301), BVR (A*1101), VIJF (A*2401); endogenous in cells; host or cells: B-cell line EKR

[2] = target: T1, HLA-A*0301; test: Stability of peptide-HLA complex, binding at 4° C. and 20° C., HLA-A*0301; conditions: for Peptide Binding Stability: HLA-A*0301, IC50 at 20° C. vs 4° C.; for HLA binding Stability (Table 5): HLA type A3
Experimental: Stability of other peptide-HLA complexes was preferably determined as follows. […] Peptides of >50% of the initial complexes was lost within 2 hours were considered unstable. […] The rest was designated as unstable peptide binding.
Peptides 8-11 residues in length were selected based on typical anchor residues for HLA-A*0101, A*0301, A*1101 and HLA-A*2401 (Rammensee H G et al). The capacity of peptides to bind was tested in a competition based cellular binding assay as previously described (van der Burg S H et al 1995). FL-labeled reference peptides were synthesized as Cys-derivative (van der Burg S H et al 1995). Fluorescence labeled reference peptides used were: YLEPAC(FL)AK (SEQ ID NO: 87) (HLA-A*0101) and KVFPC(FL)ALINK (SEQ ID NO: 88) (HLA-A*1101) (Sette A et al), KVFPC(FL)ALINK (SEQ ID NO: 89) (HLAA*0301) (van der Burg S H et al 1995) and RYLKC(FL)QQLL (SEQ ID NO: 90) (A*2401) (Dai L C et al). B-cell lines used are: CAA (A*0101), EKR (A*0301), BVR (A*1101), VIJF (A*2401). The relative binding capacity of the peptides is expressed as the peptide concentration to inhibit 50% (1050) of the binding of the reference peptide. […] Peptide stabilization for HLA-A*0201 was performed as previously described (van der Burg S H et al, 1996). Peptides of >50% of the initial complexes was lost within 2 hours were considered unstable. Stability of other peptide-HLA complexes was determined as follows. Peptide binding was performed at 4° C. and 20° C. and 1050 were determined. […] The rest was designated as unstable peptide binding.

| Compound | IC50 ([1]; HLA-A*0301, IC50 category) [µM] | Peptide Binding Stability [2] | HLA binding Stability (Table 5) [2] | HLA binding Affinity (Table 5) [1] | Peptide Binding Affinity ([1]; HLA-A*0301, IC50 category) |
| --- | --- | --- | --- | --- | --- |
| CC(C)C[C@H](NC(=O)[C@H](C)NC(=O)[C@@H]1CCCN1C(=O)[C@H](CO)NC(=O)[C@H](Cc1ccc(O)cc1)NC(=O)[C@@H](NC(=O)[C@H](CS)NC(=O)[C@@H](NC(=O)[C@@H](N)C(C)C)[C@@H](C)O)[C@@H](C)O)C(=O)N[C@@H](CC(N)=O)C(=O)N[C@@H](CCCCN)C(=O)O [p53 122-132] | 5 to 15 | + (Stable peptides displayed IC50 at 20 °C that deviated <2 times of the IC50 at 4° C.) |  |  |  |
| CC[C@H](C)[C@H](NC(=O)[C@H](C)NC(=O)[C@H](CCSC)NC(=O)[C@H](C)NC(=O)[C@H](CCCNC(=N)N)NC(=O)[C@@H](NC(=O)[C@H](CCCNC(=N)N)NC(=O)[C@@H](NC(=O)CN)[C@@H](C)O)C(C)C)C(=O)N[C@@H](Cc1ccc(O)cc1)C(=O)O [p53 154-163] |  | − (The rest was designated as unstable peptide binding.) | − (The rest was designated as unstable peptide binding.) |  |  |
| CC[C@H](C)[C@H](NC(=O)[C@H](C)NC(=O)[C@H](CCSC)NC(=O)[C@H](C)NC(=O)[C@H](CCCNC(=N)N)NC(=O)[C@@H](NC(=O)[C@H](CCCNC(=N)N)NC(=O)[C@@H](NC(=O)CN)[C@@H](C)O)C(C)C)C(=O)N[C@@H](Cc1ccc(O)cc1)C(=O)N[C@@H](CCCCN)C(=O)O [p53 154-164] |  | + (Stable peptides displayed IC50 at 20 °C that deviated <2 times of the IC50 at 4° C.) | + (Stable peptides displayed IC50 at 20 °C that deviated <2 times of the IC50 at 4° C.) |  |  |
| CC(C)[C@H](N)C(=O)N[C@H](C(=O)N[C@@H](CCCNC(=N)N)C(=O)N[C@@H](CCCNC(=N)N)C(=O)N[C@@H](CS)C(=O)N1CCC[C@H]1C(=O)N[C@@H](Cc1c[nH]cn1)C(=O)N[C@@H](Cc1c[nH]cn1)C(=O)N[C@@H](CCC(=O)O)C(=O)N[C@@H](CCCNC(=N)N)C(=O)O)C(C)C [p53 172-181] |  | + (Stable peptides displayed IC50 at 20 °C that deviated <2 times of the IC50 at 4° C.) | + (Stable peptides displayed IC50 at 20 °C that deviated <2 times of the IC50 at 4° C.) |  |  |
| CC(C)C[C@H](NC(=O)[C@H](Cc1c[nH]cn1)NC(=O)[C@H](CO)NC(=O)[C@H](CO)NC(=O)[C@H](Cc1c[nH]cn1)NC(=O)[C@H](C)NC(=O)[C@@H](N)CCCNC(=N)N)C(=O)N[C@@H](CCCCN)C(=O)N[C@@H](CO)C(=O)N[C@@H](CCCCN)C(=O)N[C@@H](CCCCN)C(=O)O [p53 363-373] |  | + (Stable peptides displayed IC50 at 20 °C that deviated <2 times of the IC50 at 4° C.) | + (Stable peptides displayed IC50 at 20 °C that deviated <2 times of the IC50 at 4° C.) |  |  |
| CSCC[C@H](NC(=O)[C@H](CC(C)C)NC(=O)[C@H](CCCCN)NC(=O)[C@H](CCCCN)NC(=O)[C@H](Cc1c[nH]cn1)NC(=O)[C@H](CCCNC(=N)N)NC(=O)[C@H](CO)NC(=O)[C@@H](NC(=O)[C@@H](N)CO)[C@@H](C)O)C(=O)N[C@@H](Cc1ccccc1)C(=O)N[C@@H](CCCCN)C(=O)O [p53 376-386] |  | +/− (Peptides that displayed IC50 at 20 °C of more than twice the IC50 at 4 °C but IC50 < 15 μM were considered to bind with intermediate stability.) | − (The rest was designated as unstable peptide binding.) |  |  |
| GGSRAHSSHLK [p53 360-370] | 5 to 15 | − (The rest was designated as unstable peptide binding.) | − (The rest was designated as unstable peptide binding.) | int |  |
| GSRAHSSHLK [p53 361-370] |  | + (Stable peptides displayed IC50 at 20 °C that deviated <2 times of the IC50 at 4° C.) | + (Stable peptides displayed IC50 at 20 °C that deviated <2 times of the IC50 at 4° C.) | high | high |
| RAHSSHLKSK [p53 363-372] | 5 to 15 | +/− (Peptides that displayed IC50 at 20 °C of more than twice the IC50 at 4 °C but IC50 < 15 μM were considered to bind with intermediate stability.) | − (The rest was designated as unstable peptide binding.) | int |  |
